Test results from publication PMC11191095, “QSAR Reveals Decreased Lipophilicity of Polar Residues Determines the Selectivity of Antimicrobial Peptide Activity” (ACS Omega, 2024).
Where a SMILES comes first, the peptide text is derived from it.

Assays:
[1] = tested on: A. baumannii AYE; assay: microbe, parasite or virus in culture; format: cell-based, Acinetobacter baumannii; conditions: A. baumannii AYE (R); shown in µM
Procedure, shortened: (§1)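 Peptides 128→2 μg/mL, 2-fold series; inoculum ~5 × 10^5 CFU/mL from overnight culture (OD600 0.01, mixed 1:1). MHB non-cation-adjusted for bacteria, RPMI 1640 + 2% glucose for fungi. 37 °C, 20 h, OD600. MIC50/MIC90 at 50%/90% inhibition; n ≥ 3.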

[2] = tested on: A. baumannii ATCC 17978; assay: microbe, parasite or virus in culture; format: cell-based, Acinetobacter baumannii; conditions: A. baumannii ATCC 17978 (S); shown in µM
Procedure, shortened: as §1

[3] = tested on: C. albicans NCPF 3281; assay: microbe, parasite or virus in culture; format: cell-based; conditions: C. albicans NCPF 3281; shown in µM
Procedure, shortened: as §1

[4] = tested on: C. parapsilosis NCPF 3209; assay: microbe, parasite or virus in culture; format: cell-based; conditions: C. parapsilosis NCPF 3209; shown in µM
Procedure, shortened: as §1

[5] = tested on: C. tropicalis NCPF 8760; assay: microbe, parasite or virus in culture; format: cell-based; conditions: C. tropicalis NCPF 8760; shown in µM
Procedure, shortened: as §1

[6] = tested on: C. glabrata NCPF 8018; assay: microbe, parasite or virus in culture; format: cell-based; conditions: C. glabrata NCPF 8018
Procedure, shortened: as §1

[7] = tested on: C. krusei NCPF 3876; assay: microbe, parasite or virus in culture; format: cell-based; conditions: C. krusei NCPF 3876; shown in µM
Procedure, shortened: as §1

[8] = tested on: K. pneumoniae NCTC 13368; assay: microbe, parasite or virus in culture; format: cell-based, Klebsiella pneumoniae; conditions: K. pneumoniae NCTC 13368 (R); shown in µM
Procedure, shortened: as §1

[9] = tested on: K. pneumoniae M6; assay: microbe, parasite or virus in culture; format: cell-based, Klebsiella pneumoniae; conditions: K. pneumoniae M6 (S); shown in µM
Procedure, shortened: as §1

[10] = tested on: human erythrocytes; assay: In vitro hemolytic activity; format: cell-based; conditions: human erythrocytes in PBS, 1 h, 37 °C, OD550, from dose response curves
Procedure, shortened: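 Serial peptide dilutions in PBS mixed 1:1 with fresh erythrocytes, 1 h at 37 °C; supernatant OD550 measured after centrifugation. Hemolysis normalized to 0.1% Triton X-100 (full lysis) and PBS (none); HC10 and HC50 taken from dose–response curves.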

[11] = tested on: C. auris TDG 1912; assay: microbe, parasite or virus in culture; format: cell-based, Candida auris; conditions: C. auris TDG 1912
Procedure, shortened: as §1

[12] = tested on: P. aeruginosa NCTC 13437; assay: microbe, parasite or virus in culture; format: cell-based, Pseudomonas aeruginosa; conditions: P. aeruginosa NCTC 13437 (R); shown in µM
Procedure, shortened: as §1

[13] = tested on: P. aeruginosa PAO1; assay: microbe, parasite or virus in culture; format: cell-based, Pseudomonas aeruginosa; conditions: P. aeruginosa PAO1 (S)
Procedure, shortened: as §1

[14] = tested on: E. coli LEC001; assay: microbe, parasite or virus in culture; format: cell-based, Escherichia coli; conditions: E. coli LEC001 (R); shown in µM
Procedure, shortened: as §1

[15] = tested on: E. coli NCTC 12923; assay: microbe, parasite or virus in culture; format: cell-based, Escherichia coli; conditions: E. coli NCTC 12923 (S); shown in µM
Procedure, shortened: as §1

[16] = tested on: S. aureus (MRSA) NCTC 13616; assay: microbe, parasite or virus in culture; format: cell-based, Staphylococcus aureus; conditions: S. aureus (MRSA) NCTC 13616 (R); shown in µM
Procedure, shortened: as §1

[17] = tested on: S. aureus (MSSA) ATCC 9144; assay: microbe, parasite or virus in culture; format: cell-based, Staphylococcus aureus; conditions: S. aureus (MSSA) ATCC 9144 (S); shown in µM
Procedure, shortened: as §1

[18] = tested on: S. aureus (MRSA) USA300; assay: microbe, parasite or virus in culture; format: cell-based, Staphylococcus aureus; conditions: S. aureus (MRSA) USA300 (R); shown in µM
Procedure, shortened: as §1

[19] = tested on: S. aureus (MRSA) 1199B; assay: microbe, parasite or virus in culture; format: cell-based, Staphylococcus aureus; conditions: S. aureus (MRSA) 1199B (R); shown in µM
Procedure, shortened: as §1

[20] = tested on: HaCat cell line; assay: In vitro HaCat cytotoxicity (MTT); format: cell-based, human; conditions: 21 h exposure, OD570, relative to untreated control
Method: The HaCat cell line (Cellonex, South Africa) was cultured in Dulbecco’s Modified Eagle Medium (DMEM) supplemented with 10% heat-inactivated fetal calf serum (FCS) and 1% antibiotic-antimycotic (Abs) and maintained at 5–10% CO2, 37 °C, 95% humidity. For cytotoxicity screening, 5.56 × 10^4 cells/mL were plated in a 96-well plate. After 24 h incubation, the cells are initially exposed to each peptide at a concentration of 256 μg/mL or 0.1% Triton-X-100 as the control for 21 h. If cytotoxicity was observed, at a level of significance of p < 0.0001 compared with the untreated control after 21 h, a dose-response assay was undertaken. Cell viability was determined by adding 10% 3-(4,5-dimethyl-2-thiazolyl)-2,5-diphenyl-2H-tetrazolium bromide (MTT) (1 mg/mL), to each well and after a further 3 h incubation the media was discarded, and the formazan crystals dissolved by adding 25% DMSO in ethanol. The absorbance was measured at OD570 by using the FLUOstar Omega multidetection microplate reader (BMG Labtech). Percentage cell viability was calculated relative to the untreated control. The LC50 was defined as the concentration of AMP treatment that results in 50% lethality of HaCat cells and was determined from the dose-response curves.

[21] = 50% growth inhibition, RPMI 1640 + 2% glucose, 37 °C, 20 h, OD600
[22] = 90% growth inhibition, RPMI 1640 + 2% glucose, 37 °C, 20 h, OD600
[23] = MHB, 37 °C, 20 h, OD600, min. three biological repeats

CC[C@H](C)[C@H](NC(=O)[C@H](CCCCN)NC(=O)[C@H](CCC(=O)O)NC(=O)[C@H](Cc1c[nH]c2ccccc12)NC(=O)[C@H](Cc1ccccc1)NC(=O)[C@H](CCCCN)NC(=O)CNC(=O)[C@H](CC(C)C)NC(=O)[C@H](C)N)C(=O)N[C@@H](CCCCN)C(=O)N[C@@H](CO)C(=O)N[C@@H](CC(C)C)C(=O)N[C@@H](Cc1ccccc1)C(N)=O [A1F5K8-IsCTa] (H-ALGKFWEKIKSLF-NH2)
Modal MIC [1]: 5 µM | Modal MIC [2]: 2.5 µM | Modal MIC50 [3]: 39.9 µM | Modal MIC90 [3]: 39.9 µM | Modal MIC50 [4]: 39.8 µM | Modal MIC90 [4]: 39.8 µM | Modal MIC50 [5]: 5 µM | Modal MIC90 [5]: 5 µM | Modal MIC50 ([6]; shown in µM): 39.9 µM | Modal MIC90 ([6]; shown in µM): 79.9 µM | Modal MIC50 [7]: 19.9 µM | Modal MIC90 [7]: 19.9 µM | Modal MIC [8]: 10 µM | Modal MIC [9]: 10 µM | HC10 (concentration causing 10% hemolysis) [10]: 102 µg/mL | Modal MIC50 [11, 21]: > 128 µg/mL | Modal MIC90 [11, 22]: > 128 µg/mL | Modal MIC50 ([11]; shown in µM): > 79.9 µM | Modal MIC90 ([11]; shown in µM): > 79.9 µM | Modal MIC [12]: 39.9 µM | Modal MIC [13, 23]: > 128 µg/mL | Modal MIC ([13]; shown in µM): > 79.9 µM | Modal MIC [14]: 5 µM | Modal MIC [15]: 5 µM | Modal MIC [16]: 10 µM | Modal MIC [17]: 2.5 µM | Modal MIC [18]: 10 µM | Modal MIC [19]: 5 µM | % HaCat cell death at initial screening (256μg/mL) ± SD [20]: 83.6 ±9.2%

CC[C@H](C)[C@H](NC(=O)[C@H](C)NC(=O)[C@H](CCCCN)NC(=O)[C@@H]1CCCN1C(=O)[C@@H](NC(=O)[C@H](CC(C)C)NC(=O)[C@H](CCCCN)NC(=O)[C@H](Cc1ccccc1)NC(=O)[C@H](CC(C)C)NC(=O)[C@@H](N)Cc1ccccc1)[C@@H](C)CC)C(=O)N[C@@H](CCCCN)C(=O)N[C@@H](CCCCN)C(=O)N[C@@H](CC(C)C)C(=O)N[C@H](C(=O)N[C@@H](CO)C(=O)N[C@@H](CCCCN)C(=O)N[C@@H](Cc1ccccc1)C(=O)N[C@@H](CCCCN)C(N)=O)[C@@H](C)CC [AamAP1-Lysa] (H-FLFKLIPKAIKKLISKFK-NH2)
Modal MIC [1]: 1.8 µM | Modal MIC [2]: 0.9 µM | Modal MIC50 [3]: 14.4 µM | Modal MIC90 [3]: 28.8 µM | Modal MIC50 [4]: 14.4 µM | Modal MIC90 [4]: 14.4 µM | Modal MIC50 [5]: 0.9 µM | Modal MIC90 [5]: 0.9 µM | Modal MIC50 ([6]; shown in µM): 57.8 µM | Modal MIC90 ([6]; shown in µM): 57.8 µM | Modal MIC50 [7]: 7.2 µM | Modal MIC90 [7]: 7.2 µM | Modal MIC [8]: 3.6 µM | Modal MIC [9]: 3.6 µM | HC10 (concentration causing 10% hemolysis) [10]: 53 µg/mL | HC50 (concentration causing 50% hemolysis) [10]: 256 µg/mL | Modal MIC50 [11, 21]: > 128 µg/mL | Modal MIC90 [11, 22]: > 128 µg/mL | Modal MIC50 ([11]; shown in µM): > 57.8 µM | Modal MIC90 ([11]; shown in µM): > 57.8 µM | Modal MIC [12]: 7.2 µM | Modal MIC ([13]; shown in µM): 7.2 µM | Modal MIC [14]: 3.6 µM | Modal MIC [15]: 1.8 µM | Modal MIC [16]: 0.9 µM | Modal MIC [17]: 1.8 µM | Modal MIC [18]: 1.8 µM | Modal MIC [19]: 1.8 µM | % HaCat cell death at initial screening (256μg/mL) ± SD [20]: 94.8 ± 8.2%

CC[C@H](C)[C@H](NC(=O)[C@H](C)NC(=O)[C@H](CCCCN)NC(=O)[C@@H]1CCCN1C(=O)[C@@H](NC(=O)[C@H](CC(C)C)NC(=O)[C@H](CO)NC(=O)[C@H](Cc1ccccc1)NC(=O)[C@H](CC(C)C)NC(=O)[C@@H](N)Cc1ccccc1)[C@@H](C)CC)C(=O)NCC(=O)NCC(=O)N[C@@H](CC(C)C)C(=O)N[C@H](C(=O)N[C@@H](CO)C(=O)N[C@@H](C)C(=O)N[C@@H](Cc1ccccc1)C(=O)N[C@@H](CCCCN)C(N)=O)[C@@H](C)CC [AamAP-S1a]
Modal MIC [1]: 4.1 µM | Modal MIC [2]: 4.1 µM | Modal MIC50 [3]: 64.8 µM | Modal MIC90 [3]: 64.8 µM | Modal MIC50 [4]: 64.8 µM | Modal MIC90 [4]: 64.8 µM | Modal MIC50 [5]: 8.1 µM | Modal MIC90 [5]: 8.1 µM | Modal MIC50 ([6]; 50% growth inhibition, RPMI 1640 + 2% glucose, 37 °C, 20 h): > 128 µg/mL | Modal MIC90 ([6]; 90% growth inhibition, RPMI 1640 + 2% glucose, 37 °C, 20 h): > 128 µg/mL | Modal MIC50 ([6]; shown in µM): > 64.8 µM | Modal MIC90 ([6]; shown in µM): > 64.8 µM | Modal MIC50 [7]: 32.4 µM | Modal MIC90 [7]: 32.4 µM | Modal MIC [8]: 32.4 µM | Modal MIC [9]: 32.4 µM | HC10 (concentration causing 10% hemolysis) [10]: 45 µg/mL | HC50 (concentration causing 50% hemolysis) [10]: 112 µg/mL | HC50 (concentration causing 50% hemolysis) ([10]; listed as AamAP1-S1a): lower than 256 µg/mL | Modal MIC50 [11, 21]: > 128 µg/mL | Modal MIC90 [11, 22]: > 128 µg/mL | Modal MIC50 ([11]; shown in µM): > 64.8 µM | Modal MIC90 ([11]; shown in µM): > 64.8 µM | Modal MIC [12]: 64.8 µM | Modal MIC [13, 23]: > 128 µg/mL | Modal MIC ([13]; shown in µM): > 64.8 µM | Modal MIC [14]: 8.1 µM | Modal MIC [15]: 8.1 µM | Modal MIC [16]: 4.1 µM | Modal MIC [17]: 2 µM | Modal MIC [18]: 4.1 µM | Modal MIC [19]: 2 µM | % HaCat cell death at initial screening (256μg/mL) ± SD [20]: 97.6 ±12.6%
